Measurements reported in patent publication US10137174B2, “Methods and materials for treating cancers that express reduced levels of wild-type p53 polypeptides” (Mayo Foundation for Medical Education and Research, priority 2009, dated 2018).

Assays:
[1] = system: USP10 phosphorylation (PIKKs/ATM); experiment: USP10 phosphorylation at SQ/TQ motifs after DNA damage (FLAG-USP10 IP, pSQ/TQ blot) in HCT116 cells; assay type: cell-based; details: Ku55933, 2 hours pretreatment; 10 Gy radiation; HCT116 cells with FLAG-USP10
Description: Forty-eight hours later, the cells were left untreated or treated with 10 Gy radiation, 40 J/m^2 UV, or 20 mM etoposide. After an additional 1 hour, the cells were harvested. Cell lysates were subjected to immunoprecipitation with anti-FLAG antibody and immunobloted with phospho-SQ/TQ (pSQ/TQ) antibody. […] After 2 hours of incubation, cells were left untreated or treated with 10 Gy radiation. The phosphorylation of USP10 was examined as in (FIG. 6C). […] Cells were left untreated or treated with 10 Gy radiation. USP10 phosphorylation was examined by pSQ/TQ antibody.
Cells were lysed with NETN buffer (20 mM Tris-HCl, pH 8.0, 100 mM NaCl, 1 mM EDTA, 0.5% Nonidet P-40) containing 50 mM β-glycerophosphate, 10 mM NaF, and 1 mg/mL each of pepstatin A, and aprotinin. Whole cell lysates obtained by centrifugation were incubated with 2 μg of antibody and protein A or protein G Sepharose beads (Amersham Biosciences) for 2 hours at 4° C. The immunocomplexes were then washed with NETN buffer three times and separated by SDS-PAGE. Immunoblotting was performed following standard procedures.

[2] = biological target: T1, USP10 polypeptide (Homo sapiens, UniProt Q14694); experiment: Ub-AMC deubiquitination assay with USP10 polypeptide; assay type: biochemical; details: USP10 4 μg/mL, Ub-AMC 300 nmol/L, vs DMSO, p<0.01
T1 construct: His; made in house; host or cells: E. coli BL21 (pET-28a vector)
Description: FIG. 17A is a concentration curve graph plotting the level of deubiquitination of Ub-AMC observed following incubation with the indicated amounts of USP10 polypeptide (μg). FIG. 17B is a graph plotting the level of deubiquitination of Ub-AMC in the presence (right) or absence (left) of 4 μg/mL of USP10 polypeptides and the indicated compound.
Briefly, the amount of Ub-AMC deubiquitination in vitro increased as the concentration of USP10 polypeptides increased (FIG. 17A).
N-ethylmaleimide (1 mM), Z-phe-ala fluoromethyl ketone ([…] dihydrochloride (10 μg/mL), E-64 (10 μM), chymostatia ([…] fluoride (40 μM), E-64d (0.5 μM), and cystatin (36 μg/mL) were tested for the ability to inhibit USP10 polypeptide activity using USP10 polypeptide (4 μg/mL) and Ub-AMC (300 nmol/L). Briefly, both enzyme (USP10 polypeptide) and substrate (Ub-AMC) were freshly prepared in USP10 reaction buffer (50 mmol/L Tris-HCl (pH 7.6), 0.5 mmol/L EDTA, 5 mmol/L DTT, 0.01% Triton X-100, and 0.05 mg/mL serum albumin) for each run. Each well (except substrate control wells) in a typical assay contained 4 μg/mL of USP10, the compound, or 2% DMSO. The wells were incubated for 30 minutes to attain equilibrium, and the enzymatic reaction was then initiated by adding the substrate (300 nmol/L of Ub-AMC). […]

T1 sequence (Q14694 whole entry): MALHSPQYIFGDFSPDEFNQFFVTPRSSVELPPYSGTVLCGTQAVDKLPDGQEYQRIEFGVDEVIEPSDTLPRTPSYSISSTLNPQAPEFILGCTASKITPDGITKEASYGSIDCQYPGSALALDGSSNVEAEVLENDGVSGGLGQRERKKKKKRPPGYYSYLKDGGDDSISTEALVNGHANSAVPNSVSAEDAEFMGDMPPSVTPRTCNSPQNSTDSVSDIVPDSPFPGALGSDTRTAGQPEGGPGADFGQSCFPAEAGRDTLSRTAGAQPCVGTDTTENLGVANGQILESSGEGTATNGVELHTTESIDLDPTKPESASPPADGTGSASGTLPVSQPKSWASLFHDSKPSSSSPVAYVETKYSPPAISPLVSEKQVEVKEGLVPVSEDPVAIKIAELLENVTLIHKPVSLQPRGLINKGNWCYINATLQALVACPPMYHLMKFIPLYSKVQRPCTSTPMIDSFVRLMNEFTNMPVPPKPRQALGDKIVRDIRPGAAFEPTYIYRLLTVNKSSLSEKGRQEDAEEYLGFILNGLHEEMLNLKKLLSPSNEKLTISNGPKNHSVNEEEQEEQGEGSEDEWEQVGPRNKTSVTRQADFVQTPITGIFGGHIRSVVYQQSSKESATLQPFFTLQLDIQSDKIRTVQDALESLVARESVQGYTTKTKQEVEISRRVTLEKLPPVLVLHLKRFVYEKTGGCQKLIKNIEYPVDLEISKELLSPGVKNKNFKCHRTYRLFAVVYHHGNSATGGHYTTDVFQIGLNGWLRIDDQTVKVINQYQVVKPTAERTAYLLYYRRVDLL

Q: `O=c1cc(-c2cccc3c2Sc2ccccc2S3)oc(N2CCOCC2)c1` [KU55933] was tested. Which “USP10 phosphorylation after IR” value [1] did it give?
A: inhibited

Q: For `CCN1C(=O)C=CC1=O` [N-ethylmaleimide], which “deubiquitinating activity of USP10 polypeptides” value ([2]; compound 1 mM) is on record?
A: significantly inhibited

Q: How did the “deubiquitinating activity of USP10 polypeptides” value ([2]; compound 80 μM) turn out when `C[C@H](NC(=O)[C@H](Cc1ccccc1)NC(=O)OCc1ccccc1)C(=O)CF` [Z-phe-ala fluoromethyl ketone] was run?
A: significantly inhibited
